ChEMBL document CHEMBL5154919, “New ZW4864 Derivatives as Small-Molecule Inhibitors for the β-Catenin/BCL9 Protein-Protein Interaction” (ACS Med Chem Lett, 2022)

Key:
[1] = target: T1, beta-catenin-B-cell lymphoma 9 protein complex (Homo sapiens, UniProt P35222); experiment: Inhibition of full length beta-catenin (1 to 781 residues) (unknown origin) expressed in Escherichia coli BL21 (DE3)-N-terminal biotinylated human BCL9 (350 to 375 residues) protein-protein interaction incubated for 1 hr by Alphascreen assay
T1 sequence (P35222 whole entry): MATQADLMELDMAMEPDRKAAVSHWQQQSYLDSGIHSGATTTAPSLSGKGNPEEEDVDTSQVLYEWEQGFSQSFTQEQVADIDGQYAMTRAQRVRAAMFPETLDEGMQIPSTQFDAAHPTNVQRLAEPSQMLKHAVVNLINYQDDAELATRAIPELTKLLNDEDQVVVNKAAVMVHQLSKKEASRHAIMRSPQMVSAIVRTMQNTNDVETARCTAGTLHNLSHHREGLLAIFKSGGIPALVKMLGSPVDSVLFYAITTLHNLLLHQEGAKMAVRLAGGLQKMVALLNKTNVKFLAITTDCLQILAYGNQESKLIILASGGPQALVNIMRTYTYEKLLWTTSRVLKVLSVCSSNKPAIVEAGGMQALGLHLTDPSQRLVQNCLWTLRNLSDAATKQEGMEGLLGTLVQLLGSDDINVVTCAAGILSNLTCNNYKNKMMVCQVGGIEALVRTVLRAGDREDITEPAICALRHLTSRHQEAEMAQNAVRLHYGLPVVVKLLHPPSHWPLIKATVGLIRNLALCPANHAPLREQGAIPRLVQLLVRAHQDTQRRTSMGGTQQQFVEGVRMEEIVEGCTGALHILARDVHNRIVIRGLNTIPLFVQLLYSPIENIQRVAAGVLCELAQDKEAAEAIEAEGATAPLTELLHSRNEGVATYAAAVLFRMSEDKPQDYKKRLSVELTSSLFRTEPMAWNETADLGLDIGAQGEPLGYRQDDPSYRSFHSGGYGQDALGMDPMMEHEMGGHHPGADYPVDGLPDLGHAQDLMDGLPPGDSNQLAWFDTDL
T1 sequence (O00512 whole entry): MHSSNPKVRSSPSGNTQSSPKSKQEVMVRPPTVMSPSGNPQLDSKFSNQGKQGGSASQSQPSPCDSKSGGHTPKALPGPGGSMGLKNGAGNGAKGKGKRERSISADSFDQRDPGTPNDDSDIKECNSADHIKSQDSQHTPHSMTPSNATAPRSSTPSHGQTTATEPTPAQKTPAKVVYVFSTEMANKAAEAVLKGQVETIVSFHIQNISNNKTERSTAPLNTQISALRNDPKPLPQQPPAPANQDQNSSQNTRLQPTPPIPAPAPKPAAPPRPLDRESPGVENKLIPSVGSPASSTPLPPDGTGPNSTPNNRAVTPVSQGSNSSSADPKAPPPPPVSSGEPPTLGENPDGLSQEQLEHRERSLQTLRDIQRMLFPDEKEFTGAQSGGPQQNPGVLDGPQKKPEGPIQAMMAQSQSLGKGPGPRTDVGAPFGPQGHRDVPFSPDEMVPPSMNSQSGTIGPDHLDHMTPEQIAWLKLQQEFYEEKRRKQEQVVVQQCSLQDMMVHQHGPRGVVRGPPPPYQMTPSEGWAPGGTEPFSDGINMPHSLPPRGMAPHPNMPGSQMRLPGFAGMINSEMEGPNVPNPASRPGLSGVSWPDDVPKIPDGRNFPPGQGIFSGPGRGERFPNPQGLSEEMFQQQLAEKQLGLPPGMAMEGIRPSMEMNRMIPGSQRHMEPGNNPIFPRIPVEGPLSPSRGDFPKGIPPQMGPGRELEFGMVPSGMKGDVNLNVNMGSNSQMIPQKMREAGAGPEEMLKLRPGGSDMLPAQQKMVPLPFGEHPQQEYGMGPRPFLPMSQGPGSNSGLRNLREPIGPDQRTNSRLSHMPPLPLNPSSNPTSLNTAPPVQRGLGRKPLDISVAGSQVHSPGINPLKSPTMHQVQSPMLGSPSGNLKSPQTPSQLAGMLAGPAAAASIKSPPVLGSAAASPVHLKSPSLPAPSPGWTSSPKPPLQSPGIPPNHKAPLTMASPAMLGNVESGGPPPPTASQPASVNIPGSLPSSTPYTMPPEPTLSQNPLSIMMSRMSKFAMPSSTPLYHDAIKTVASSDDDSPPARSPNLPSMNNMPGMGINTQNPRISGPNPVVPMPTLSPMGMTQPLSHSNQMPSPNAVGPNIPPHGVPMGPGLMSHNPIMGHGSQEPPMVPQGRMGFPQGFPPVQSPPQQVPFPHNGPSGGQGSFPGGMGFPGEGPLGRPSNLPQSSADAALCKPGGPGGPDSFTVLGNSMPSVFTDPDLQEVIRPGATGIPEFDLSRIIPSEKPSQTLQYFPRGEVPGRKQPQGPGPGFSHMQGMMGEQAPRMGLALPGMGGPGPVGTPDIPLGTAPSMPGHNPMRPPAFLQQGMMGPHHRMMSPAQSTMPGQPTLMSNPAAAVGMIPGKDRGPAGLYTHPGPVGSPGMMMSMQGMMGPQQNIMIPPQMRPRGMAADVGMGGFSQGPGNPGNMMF

SW480 = experiment: Antiproliferative activity against human SW480 cells assessed as inhibition of cell growth measured by MTS method; type: functional, cell-based
HCT-116 = experiment: Antiproliferative activity against human HCT-116 cells assessed as inhibition of cell growth measured by MTS method; type: functional, cell-based
MDA-MB-231 = experiment: Antiproliferative activity against human MDA-MB-231 cells assessed as inhibition of cell growth measured by MTS method; type: functional, cell-based
MDA-MB-468 = experiment: Antiproliferative activity against human MDA-MB-468 cells assessed as inhibition of cell growth measured by MTS method; type: functional, cell-based
[2] = Effect of Wnt/beta-Catenin signaling pathway in human SW480 cells assessed as reduction in Cyclin D1 level at 10 uM incubated for 24 hrs by qRT-PCR analysis relative to control; type: functional; conditions: SW480, 24 h
[3] = Effect of Wnt/beta-Catenin signaling pathway in human SW480 cells assessed as reduction in BCL9L level at 10 uM incubated for 24 hrs by qRT-PCR analysis relative to control; type: functional; conditions: SW480, 24 h
[4] = Metabolic stability in mouse Hepatocyte assessed as half life; type: ADME, cell-based; conditions: hepatocytes
[5] = Effect of Wnt/beta-Catenin signaling pathway in human SW480 cells assessed as reduction in Cyclin D1 level at 5 uM incubated for 24 hrs by qRT-PCR analysis relative to control; type: functional; conditions: SW480, 24 h
[6] = Effect of Wnt/beta-Catenin signaling pathway in human SW480 cells assessed as reduction in BCL9L level at 5 uM incubated for 24 hrs by qRT-PCR analysis relative to control; type: functional; conditions: SW480, 24 h
[7] = Effect of Wnt/beta-Catenin signaling pathway in human SW480 cells assessed as reduction in HPRT level at 20 uM incubated for 24 hrs by qRT-PCR analysis relative to control; type: functional; conditions: SW480, 24 h
[8] = Effect of Wnt/beta-Catenin signaling pathway in human SW480 cells assessed as HPRT level at 10 uM incubated for 24 hrs by qRT-PCR analysis relative to control; conditions: SW480, 24 h

Compound `CC(C)(Oc1cccc(N2CCC[C@@H](C(=O)N(Cc3ccc(-c4cnc5[nH]ccc5c4)cc3)C3CC3)C2)c1)C(=O)N1CCNCC1.Cl` has an IC50 [1] of 3.4 µM, a Ki [1] of 2.7 µM and an IC50 (SW480) of 14 µM. The IC50 (HCT-116) was 9.5 µM, the IC50 (MDA-MB-231) was 6.3 µM and the IC50 (MDA-MB-468) was 5 µM. It also gave a level, % of control at 10 µM [2] of 54%, a level, % of control at 10 µM [3] of 52% and a half-life [4] of 11.6 min. The level, % of control at 5 µM [5] was 89%, the level, % of control at 5 µM [6] was 77% and the level, % of control at 20 µM [7] was 99%. It also gave a level, % of control at 10 µM [8] of 100%.
